For one compound, Kd and IC50 results are on record in patent US20110117017A1, “PEPTIDES WITH PROPERTIES OF AN […] FOR THE ALPHA 1A […] RECEPTOR AND USES THEREOF” (priority 2006, published 2011).

For orientation: Kd means the concentration at which binding is half-saturated. The term IC50 denotes the concentration that gives 50% inhibition. A high value points to lower potency.

Test [1] addresses T1, alpha1a adrenergic receptor (Homo sapiens, UniProt P35348).
T1 sequence (P35348 1-466): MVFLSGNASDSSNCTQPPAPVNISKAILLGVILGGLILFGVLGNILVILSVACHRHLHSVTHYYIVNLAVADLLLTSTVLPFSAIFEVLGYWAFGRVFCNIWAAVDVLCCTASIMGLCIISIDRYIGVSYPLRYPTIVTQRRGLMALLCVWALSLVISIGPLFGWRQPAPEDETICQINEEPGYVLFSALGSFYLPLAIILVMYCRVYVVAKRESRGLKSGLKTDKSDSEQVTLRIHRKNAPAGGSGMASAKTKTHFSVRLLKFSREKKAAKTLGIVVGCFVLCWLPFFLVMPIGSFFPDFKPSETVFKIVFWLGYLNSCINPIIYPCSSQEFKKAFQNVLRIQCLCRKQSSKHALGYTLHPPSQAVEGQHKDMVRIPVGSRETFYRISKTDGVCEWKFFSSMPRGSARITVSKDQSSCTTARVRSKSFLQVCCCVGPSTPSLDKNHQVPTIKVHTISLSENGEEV
As to the kind of experiment: hot saturation of 125I-AdTx1 on yeast membranes expressing the alpha1a adrenergic receptor.
Protocol: The analysis of the saturation of the alpha1a adrenergic receptor with AdTx1 is carried out by incubating increasing concentrations of the iodinated peptide in the presence of 20 μg of membranes containing the alpha1a adrenergic receptor, for 20 h, and then measuring the radioactivity as above.

A further test deals with T2, alpha1a receptor (Homo sapiens, UniProt P35348).
T2 construct: made in house; host or cells: Pichia pastoris (membranes)
T2 sequence (P35348 1-466): T1 sequence (P35348 1-466)
As to the kind of experiment: displacement of 3H-prazosin binding to the alpha1a receptor (yeast membranes). (Loss of bound radioactivity is the signal in a displacement assay; it reports binding, not function.)

A further test addresses T3, alpha1d receptor (Homo sapiens, UniProt P25100).
T3 construct: made in house; host or cells: Pichia pastoris (membranes)
T3 sequence (P25100 1-572): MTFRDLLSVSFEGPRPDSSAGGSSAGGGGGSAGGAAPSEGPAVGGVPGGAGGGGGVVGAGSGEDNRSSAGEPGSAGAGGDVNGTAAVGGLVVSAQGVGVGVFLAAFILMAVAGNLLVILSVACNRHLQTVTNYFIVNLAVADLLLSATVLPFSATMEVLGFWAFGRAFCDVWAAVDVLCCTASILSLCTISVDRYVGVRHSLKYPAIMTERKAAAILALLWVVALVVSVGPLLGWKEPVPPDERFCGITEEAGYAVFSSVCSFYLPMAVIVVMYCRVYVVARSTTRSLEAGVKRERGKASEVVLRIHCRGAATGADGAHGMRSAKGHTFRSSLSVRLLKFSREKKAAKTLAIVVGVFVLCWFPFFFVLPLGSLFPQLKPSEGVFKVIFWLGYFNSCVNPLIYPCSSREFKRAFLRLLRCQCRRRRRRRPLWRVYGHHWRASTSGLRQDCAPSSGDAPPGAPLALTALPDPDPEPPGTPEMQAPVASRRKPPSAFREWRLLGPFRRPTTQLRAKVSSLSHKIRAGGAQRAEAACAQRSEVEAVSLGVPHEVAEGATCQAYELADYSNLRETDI
Put plainly: displacement of 3H-prazosin binding to the alpha1d receptor (yeast membranes).

A further test deals with T4, α2a adrenergic receptor (Homo sapiens, UniProt P08913).
T4 construct: made in house; host or cells: Pichia pastoris (membranes)
T4 sequence (P08913 1-465): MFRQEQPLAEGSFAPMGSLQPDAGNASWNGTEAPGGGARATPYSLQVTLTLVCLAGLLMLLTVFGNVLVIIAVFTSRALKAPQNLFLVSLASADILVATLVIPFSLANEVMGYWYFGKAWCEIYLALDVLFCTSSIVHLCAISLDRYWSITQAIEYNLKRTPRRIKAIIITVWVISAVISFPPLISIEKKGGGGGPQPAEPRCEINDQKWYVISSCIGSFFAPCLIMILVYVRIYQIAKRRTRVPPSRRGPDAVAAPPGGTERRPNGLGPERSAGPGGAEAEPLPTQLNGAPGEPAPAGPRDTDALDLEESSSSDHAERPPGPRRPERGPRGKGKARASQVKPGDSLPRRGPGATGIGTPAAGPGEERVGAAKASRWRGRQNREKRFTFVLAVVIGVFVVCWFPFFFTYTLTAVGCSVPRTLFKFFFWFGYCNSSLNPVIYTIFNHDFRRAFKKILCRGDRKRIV
Put plainly: displacement of 3H-rauwolscine binding to the alpha2a subtype (yeast membranes).

For test [2], the target named is T1, alpha1a adrenergic receptor.
For the next test, the target named is T5, beta1 receptor (Homo sapiens, UniProt P08588).
T5 construct: made in house; host or cells: Pichia pastoris (membranes)
Put plainly: displacement of 3H-CGP12177 binding to the beta1 receptor (yeast membranes).

The next test concerns the target T6, alpha1b receptor (Homo sapiens, UniProt P35368).
T6 construct: made in house; host or cells: Pichia pastoris (membranes)
T6 sequence (P35368 1-520): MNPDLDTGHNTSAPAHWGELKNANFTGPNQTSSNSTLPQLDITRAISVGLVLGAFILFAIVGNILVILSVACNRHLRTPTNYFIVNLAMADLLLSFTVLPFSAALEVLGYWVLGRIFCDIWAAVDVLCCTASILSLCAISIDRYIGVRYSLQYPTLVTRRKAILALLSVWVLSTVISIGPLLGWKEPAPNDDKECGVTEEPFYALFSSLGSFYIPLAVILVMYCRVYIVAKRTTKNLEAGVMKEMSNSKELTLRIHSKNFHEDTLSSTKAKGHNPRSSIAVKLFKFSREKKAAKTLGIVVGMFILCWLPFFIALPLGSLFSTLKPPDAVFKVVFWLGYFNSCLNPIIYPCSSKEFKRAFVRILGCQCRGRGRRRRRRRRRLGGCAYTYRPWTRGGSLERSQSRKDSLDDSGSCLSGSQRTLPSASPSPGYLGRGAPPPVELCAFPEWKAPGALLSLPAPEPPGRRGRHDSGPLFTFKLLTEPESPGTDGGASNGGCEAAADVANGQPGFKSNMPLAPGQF
As to the kind of experiment: displacement of 3H-prazosin binding to the alpha1b receptor (yeast membranes).

T5 sequence (P08588 whole entry): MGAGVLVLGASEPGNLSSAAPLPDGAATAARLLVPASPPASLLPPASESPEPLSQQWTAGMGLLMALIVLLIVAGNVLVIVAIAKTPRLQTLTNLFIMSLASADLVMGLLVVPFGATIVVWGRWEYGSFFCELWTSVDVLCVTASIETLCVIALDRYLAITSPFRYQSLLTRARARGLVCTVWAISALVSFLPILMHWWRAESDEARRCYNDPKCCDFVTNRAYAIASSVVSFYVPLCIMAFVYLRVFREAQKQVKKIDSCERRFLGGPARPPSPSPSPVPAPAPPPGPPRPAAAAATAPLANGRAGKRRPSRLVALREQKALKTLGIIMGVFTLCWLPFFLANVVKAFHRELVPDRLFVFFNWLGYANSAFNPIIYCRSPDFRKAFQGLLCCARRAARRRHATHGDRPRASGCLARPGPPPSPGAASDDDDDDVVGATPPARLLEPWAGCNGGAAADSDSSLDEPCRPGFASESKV

`CC[C@H](C)[C@@H]1NC(=O)CNC(=O)[C@H](Cc2ccccc2)NC(=O)[C@H]([C@@H](C)CC)NC(=O)[C@H](CO)NC(=O)[C@H](CCCCN)NC(=O)[C@H](CO)NC(=O)[C@H]([C@@H](C)O)NC(=O)[C@H](C(C)C)NC(=O)[C@@H](NC(=O)[C@@H](NC(=O)[C@@H](N)CC(C)C)[C@@H](C)O)CSSC[C@@H]2NC(=O)[C@H](CC(C)C)NC(=O)[C@H](CC(N)=O)NC(=O)[C@H](CCC(N)=O)NC(=O)CNC(=O)[C@H](CC(=O)O)NC(=O)[C@@H]3CCCN3C(=O)[C@H](CSSC[C@@H](C(=O)N[C@@H](C)C(=O)N[C@@H](C)C(=O)N[C@H](C(=O)N[C@H]3CSSC[C@@H](C(=O)N[C@H]4CSSC[C@@H](C(=O)N[C@@H](CC(N)=O)C(=O)N[C@@H](CCC(=O)O)C(=O)O)NC(=O)[C@H](CCCCN)NC(=O)[C@H](CC(=O)O)NC(=O)[C@H]([C@@H](C)O)NC(=O)[C@H](CCCCN)NC4=O)NC(=O)[C@H](Cc4c[nH]cn4)NC(=O)[C@H]([C@@H](C)CC)NC(=O)[C@H](CO)NC(=O)[C@H](CC(=O)O)NC(=O)[C@H](Cc4ccc(O)cc4)NC(=O)[C@H](CC(N)=O)NC(=O)[C@H](CCC(=O)O)NC(=O)[C@@H]4CCCN4C(=O)[C@H]([C@@H](C)CC)NC(=O)[C@@H]4CCCN4C3=O)[C@@H](C)O)NC(=O)CNC(=O)[C@H](CCCNC(=N)N)NC(=O)[C@H]([C@@H](C)O)NC(=O)[C@H](CO)NC(=O)[C@H](CC(=O)O)NC(=O)[C@H](Cc3ccc(O)cc3)NC(=O)[C@H]([C@@H](C)CC)NC(=O)[C@H](CCCCN)NC(=O)[C@@H]3CCCN3C(=O)[C@H](C(C)C)NC(=O)[C@H](C(C)C)NC(=O)[C@H](Cc3ccc(O)cc3)NC(=O)[C@H](Cc3c[nH]cn3)NC(=O)[C@H](CCCNC(=N)N)NC(=O)[C@H](CCCNC(=N)N)NC(=O)[C@H](CCCCN)NC(=O)[C@H](Cc3ccccc3)NC2=O)NC(=O)[C@H](CC(=O)O)NC(=O)[C@H](CCC(=O)O)NC(=O)[C@H]([C@@H](C)O)NC(=O)[C@H]([C@@H](C)O)NC1=O` [AdTx1]: in test [1], binding was put at a Kd of 0.8 ± 0.2 nM. The IC50 at alpha1a receptor is 1.8 nM; at alpha1d receptor, 9900 nM; on α2a adrenergic receptor, above 50000 nM; in test [2], 0.5 nM; on beta1 receptor it was above 50000 nM; on alpha1b receptor it was 2300 nM.
